Inhibition and IC50 data for two compounds are collected here from US5760036A, “Aminediol protease inhibitors” (E. R. Squibb & Sons, Inc., priority 1995, dated 1998).

In one experiment the target is T1, HIV protease (Human immunodeficiency virus type 1 group M subtype B, UniProt P04585).
T1 construct: and purified protease
Put plainly: HIV Protease Assay. It is filed as biochemical. An outline of the steps: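 Purified protease cleaved 450 μM octapeptide substrate in 50 mM sodium acetate pH 5.5 with 100 μg/ml BSA for 30 minutes at 37° C; product analyzed by reverse-phase HPLC at UV220 after H3PO4 quench. Inhibitors tested at final 10 μM with 4% DMSO.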

For experiment [1], the system named is RF strain of HIV (CEM-SS cells). Put plainly: Cell Culture Anti-HIV Activity (cell viability, formazan). It is filed as cell-based. The following applies: Human immunodeficiency virus 1, CEM-SS, 144 h, CEM-SS cells, RF strain of HIV, multiplicity of infection 0.04, 6 days at 37° C., 450 nm; read-out: HIV (CEM Cells) IC50. An outline of the steps:
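CEM-SS cells (5000/well) infected with HIV RF at MOI 0.04, exposed to half-log serial compound dilutions, incubated 6 days at 37° C. Viability read by tetrazolium reduction to formazan, absorbance 450 nm. IC50 is the concentration raising formazan in infected cells to 50% of uninfected, drug-free cells.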

Read-outs that look alike come from different tables or passages of the source.

The inhibition is the share of the control response that was lost under treatment. As a reminder, the IC50 is the concentration at which inhibition is half-maximal. For the compound `CC(C)(C)OC(=O)N[C@@H](Cc1ccccc1)[C@H](O)CNC[C@@H](O)[C@H](Cc1ccccc1)NC(=O)OC1CCS(=O)(=O)C1` (stereo partly drawn) [Compound 360, [1S-(1R*,2S*)]-[Iminobis[2-hydroxy-1-(phenylmethyl)-3,1-propanediyl)]bis[carbamic acid], 1,1-dimethylethyl tetrahydro-1,1-dioxo-3-thienyl ester], at HIV protease (pH 5.5, 10 μM inhibitor, 4% DMSO, 450 μM substrate, pH 5.5, 30 minutes at 37° C., RP-HPLC, read-out: HIV Protease % Inhibition at 10 μM), the inhibition at 10 µM came to 96%. The 50% inhibitory concentration (IC50) in experiment [1] was determined as 450 nM.

Regarding `CN1CCN(CCOc2ccc(C[C@H](NC(=O)OC(C)(C)C)[C@H](O)CNC[C@@H](O)[C@H](Cc3ccccc3)NC(=O)OC(C)(C)C)cc2)C1=O` [Compound 363, [1S-[1R*,2S*(2S*,3R*)]]-[3-[[3-[[(1,1-Dimethylethoxy)carbonyl]amino]-2-hydroxy-4-[4-[2-(3-methyl-2-oxo-1-imidazolidinyl)-ethoxy]phenyl]butyl]amino]-2-hydroxy-1-(phenylmethyl)propyl]carbamic acid, 1,1-dimethylethyl ester], the inhibition at 10 µM on HIV protease (pH 5.5, read-out: HIV Protease % Inhibition at 10 μM) is 99%. In addition, in experiment [1], the half-inhibitory concentration (IC50) is 40 nM.
